Measured values taken from patent US7718671B2, “Substituted arylthiourea derivatives useful as inhibitors of viral replication” (Achillion Pharmaceuticals, Inc., priority 2003, dated 2010).

Each compound was assayed on Hepatitis C replicon (assay: HCV replicon assay (NPT level by captured ELISA in replicon-containing cells)). Details: Hepatitis C virus, 72 h; Huh-7 HCV replicon-containing cells, three days incubation.
Format: cell-based
Experimental: The compounds claimed herein were tested for the ability to inhibit viral replication of the Hepatitis C replicon in cultured cells in which the HCV replicon construct has been incorporated. The HCV replicon system was described by Bartenschlager, et. al (Science, 285, pp. 110-113 (1999)). The replicon system is predictive of in vivo anti-HCV activity; compounds that are active in humans uniformly evidence activity in the replicon assay.
HCV replicon-containing cells are treated with different concentrations of interferon alpha, a known inhibitor of HCV replication, as a positive control and with different concentrations of the test compound. The replicon assay system includes Neomycin Phosphotransferase (NPT) as a component of the replicon itself in order to detect the transcription of replicon gene products in the host cell. Cells in which the HCV is actively replicating have high levels of NPT; the level of NPT is proportional to HCV replication. […] The NPT level of each sample is measured using a captured ELISA.
A protocol for testing compounds for the ability to inhibit viral replication of the Hepatitis C replicon cultured cells in which the replicon construct has been incorporated, follows.
9A. HCV Replicon and Replicon Expression
The HCV genome consists of a single ORF that encodes a 3000 amino acid polyprotein. The ORF is flanked on the 5′ side by an untranslated region that serves as an internal ribosome entry site (IRES) and at the 3′ side by a highly conserved sequence necessary for viral replication (3′-NTR). The structural proteins, necessary for viral infection, are located near the 5′ end of the ORF. The non-structural proteins, designated NS2 to NS5B comprise the remainder of the ORF.
The HCV replicon contains, 5′-3′, the HCV-IRES, the neomycin phosphotransferase (neo) gene, the IRES of encephalomyocarditis virus, which directs translation of HCV sequences NS3 to NS5B, and the 3′-NTR. The sequence of the HCV replicon has been deposited in GenBank (Accession no. AJ242652).
The replicon is transfected into Huh-7 cells using standard methods such as electroporation.
The equipment and materials include, but are not limited to, Huh-7 HCV replicon-containing cells, maintenance media (DMEM (Dulbecco's modified Eagle media) supplemented with 10% FBS, L-glutamine, non-essential amino acids, penicillin (100 units/ml), streptomycin (100 micrograms/ml), and 500 micrograms/ml of Geneticin G418), screening media (DMEM supplemented with 10% FBS, L-glutamine, and non-essential amino acid, penicillin (100 units/ml) and streptomycin (100 micrograms/ml)), 96 well tissue culture plates (flat bottom), 96 well plates (U bottom for drug dilution), Interferon alpha for positive control, fixation reagent (such as methanol: acetone), primary antibody (rabbit anti-NPTII), secondary antibody: Eu—N1l, and enhancement solution.
HCV replicon-containing cells support high levels of viral RNA replicon replication when their density is suitable. Over confluency will cause a decrease of viral RNA replication. Therefore, cells must be kept growing in log phase in the presence of 500 micrograms/ml of G418. Generally, cells should be passed twice a week at 1: 4-6 dilution. Cell maintenance is conducted as follows:
HCV replicon-containing cells are examined under a microscope to ensure that cells growing well. Cells are rinsed once with PBS and 2 ml trypsin is added. The cell/trypsin mixture is incubated at 37° C. in a CO2 incubator for 3-5 minutes. After incubation 10 ml of complete media is added to stop the trypsinization reaction. Cells are blown gently, put into a 15 ml tube, and spun at 1200 rpm for 4 minutes. The trypsin/medium solution is removed. Medium (5 ml) is added and the cells are mixed carefully. The cells are counted.
The cells are then seeded onto 96-well plates at a density of 6000-7500 cells/100 ul/well (6-7.5×10^5 cells/10 ml/plate). The plates are then incubated at 37° C. in a 5% CO2 incubator. […]

SMILES	EC50 [µM]
NC(=S)Nc1cccc(Oc2ccccc2)c1 [Compound 3, 1-(3-Phenoxy-phenyl)-thiourea]	< 1
NC(=S)Nc1cccc(Cc2ccccc2)c1 [Compound 5, 1-(3-Benzyl-phenyl)-thiourea]	< 1
CCCCCOc1ccc(NC(N)=S)cc1 [Compound 6, 1-(4-Pentyloxy-phenyl)-thiourea]	< 1
CCCCCc1ccc(NC(N)=S)cc1 [Compound 7, 1-(4-Pentyl-phenyl)-thiourea]	< 1
CCCCCOc1ccc(NC(N)=S)cc1F [Compound 12, 1-(3-Fluoro-(4-Pentyloxy)-phenyl)-thiourea]	< 1
NC(=S)Nc1cccc(OC2Cc3ccccc3C2)c1 [Compound 13, 1-(3-(indan-2-yloxy)phenyl)thiourea]	< 1
NC(=S)Nc1cccc(OCc2ccc(F)c(F)c2)c1 [Compound 14, 1-(3-(3,4-difluorobenzyloxy)phenyl)thiourea]	< 1
NC(=S)Nc1cccc(OCc2ccc(-c3ccccc3)cc2)c1 [Compound 15, 1-(3-(4-phenylbenzyloxy)phenyl)thiourea]	< 1
C[C@H](Oc1cccc(NC(N)=S)c1)c1ccccc1 [Compound 16, 1-(3-((S)-1-phenylethoxy)phenyl)thiourea]	< 1
NC(=S)Nc1ccc2c(c1)OC(c1ccccc1)O2 (stereo not drawn) [Compound 19, 1-(2-phenylbenzo[d]-[1,3]dioxol-6-yl)thiourea]	< 1
C[C@@H](Oc1cccc(NC(N)=S)c1)c1ccccc1 [Compound 20, 1-(3-((R)-1-phenylethoxy)phenyl)thiourea]	< 1
NC(=S)Nc1cccc(OCCc2ccccc2)c1 [Compound 21, 1-(3-(phenethyloxy)phenyl)thiourea]	< 1
NC(=S)Nc1cccc(-c2ccccc2)c1 [Compound 22, 1-(3-(phenyl)phenyl)thiourea]	< 1
NC(=S)Nc1ccc(-c2ccccc2)cc1 [Compound 23, 1-(4-(phenyl)phenyl)thiourea]	< 1
NC(=S)Nc1ccc(N2CCc3ccccc3C2)c(F)c1 [Compound 24, 1-(3-fluoro-4-(3,4-dihydro-isoquinolin-2(1H)-yl)phenyl)thiourea]	< 1
NC(=S)Nc1ccc(N2CCc3ccccc3C2)cc1 [Compound 25, 1-(4-(3,4-dihydro-isoquinolin-2(1H)-yl)phenyl)thiourea]	< 1
NC(=S)Nc1ccc(N2CCC3CCCCC3C2)cc1 (stereo not drawn) [Compound 26, 1-(4-(octahydroisoquinolin-2(1H)-yl)phenyl)thiourea]	< 1

SMILES	EC50 [µM]
NC(=S)Nc1ccc(OCc2ccccc2)cc1 [Compound 28, 1-(4-(benzyloxy)phenyl)thiourea]	< 1
CCCCCC[C@H]1CC[C@H](c2ccc(NC(N)=S)cc2)CC1 [Compound 29, 1-(4-((1s,4r)-4-hexylcyclohexyl)phenyl)thiourea]	< 1
CCCCCCC12CCC(c3ccc(NC(N)=S)cc3)(CC1)CC2 [Compound 30, 1-(4-(4-hexylbicyclo[2.2.2]octan-1-yl)phenyl)thiourea]	< 1
CCC[C@H]1CC[C@H](c2ccc(NC(N)=S)cc2)CC1 [Compound 31, 1-(4-((1s,4r)-4-propylcyclohexyl)phenyl)thiourea]	< 1
NC(=S)Nc1ccc(N2CCCCC2)c(C(F)(F)F)c1 [Compound 32, 1-(3-(trifluoromethyl)-4-(piperidin-1-yl)phenyl)thiourea]	< 1
CCCCC#Cc1ccc(NC(N)=S)cc1 [Compound 33, 1-(4-(hex-1-ynyl)phenyl)thiourea]	< 1
COc1cccc(Cc2cccc(NC(N)=S)c2)c1 [Compound 35, 1-(3-(3-methoxybenzyl)phenyl) thiourea]	< 1
CCCCCCCOc1ccc(NC(N)=S)cc1C(F)(F)F [Compound 39, 1-(4-(heptyloxy)-3-(trifluoromethyl)phenyl)thiourea]	< 1
Cc1cc(NC(N)=S)ccc1N1CCCCC1 [Compound 51, 1-(3-(methyl)-4-(piperidin-1-yl)phenyl)thiourea]	< 1
NC(=S)Nc1cccc(NCC2CCCCC2)c1 [Compound 52, 1-(3-(cyclohexylmethylamino)phenyl)thiourea]	< 1
NC(=S)Nc1cccc(OCc2cccc(C(F)(F)F)c2)c1 [Compound 53, 1-(3-(3-(trifluoromethyl)benzyloxy)phenyl)thiourea]	< 1
NC(=S)Nc1ccc(N2CCC(c3ccccc3)CC2)c(F)c1 [Compound 54, 1-(3-fluoro-4-(4-phenylpiperidin-1-yl)phenyl)thiourea]	< 1
NC(=S)NCc1ccc(Oc2ccccc2)cc1 [Compound 55, 1-(4-phenoxybenzyl)thiourea]	< 1
NC(=S)NCc1cccc(-c2ccccc2)c1 [Compound 56, 1-(3-phenylbenzyl)thiourea]	< 1
NC(=S)NCc1ccc(-c2ccccc2)cc1 [Compound 57, 1-(4-phenylbenzyl)thiourea]	< 1
CCCCc1ccc(CNC(N)=S)cc1 [Compound 59, 1-(4-butylbenzyl)thiourea]	< 1
